Experimental data taken from US20250177412A1, “SMALL-MOLECULE INHIBITORS TARGETING THE BOB1/OCT1 INTERFACE” (NANTES UNIVERSITE, priority 2022, published 2025).

Legend:
memory B cells = assay: In vitro plasmablast differentiation, two-phase human B cell model, flow cytometry; format: cell-based; settings: for expression of CD20 marker (CD20+ B cells): day 7 (FIG. 3O-P); for frequency of CD27+ cells: day 4
Source text: FIGS. 3A-Y are a combination of graphs and FACS plots showing that targeting BOB1-OCT(s) complex by compound 005 dose-dependently impairs B cells proliferation, activation and differentiation into plasmablasts in the human B cell differentiation in vitro model. Enriched memory B cells from the blood of healthy subjects (n=15) were stimulated at day 0 with anti-F(ab′)2, CD40L, CpG, and IL-2 for four days (activation phase). On day 4, cells were washed and stimulated with IL-2, IL-4, and IL-10 for additional three days (differentiation phase). Compound 005 was added daily to the cultures to a final concentration of 0 (DMSO), 5, 10, 15, 20 μM, as indicated. […] FIG. 3C-H show corresponding summarized data for the frequency (FIG. 3C, E and G) and relative mean fluorescence intensity (MFI; FIG. 3D, F and H) of CD27^+ (FIG. 3C-D), CD38^+ (FIG. 3E-F), and CD20^+ (FIG. 3G-H) B cells analyzed at Day 4. […] FIG. 3K-P show corresponding summarized data for the frequency (Fig. K, M and O) and relative mean fluorescence intensity (MFI; Fig. L, N and P) of CD27^+ (FIG. 3K-L), CD38^+ (FIG. 3M-N), and CD20^+ (FIG. 3O-P) B cells analyzed at Day 7. […] FIG. 3R-Y show the effect of compound 005 on the levels of IgG1 (FIG. 3R), IgG2 (FIG. 3S), IgG3 (FIG. 3T), IgG4 (FIG. 3U), IgA (FIG. 3V), IgE (FIG. 3W), IgM (FIG. 3X) and IgD (FIG. 3Y) immunoglobulin isotypes production at Day 7. Error bars are mean±SD. P values were determined with one-way ANOVA with Geisser-Greenhouse's multiple comparisons test.
Blood samples were obtained from healthy volunteers provided by Sanquin Blood Supply Foundation (Amsterdam, the Netherlands) or from Etablissement Français du Sang (Nantes, France) after written consent was obtained. Peripheral blood mononuclear cells (PBMCs) were isolated through Ficoll-Paque gradient centrifugation on Lymphoprep (Nycomed). Total B cells were isolated from freshly purified PBMCs by negative selection (B cell Isolation Kit II; Miltenyi Biotech, 130-091-151) on magnetic columns using autoMACS Pro Separator according to the manufacturer's instructions. Subsequently, memory and naïve B cells were isolated from negatively-selected CD19^+ B cells by positive and negative selection with CD27 MicroBeads (Miltenyi Biotech, 130-051-601) using autoMACS Pro Separator according to the manufacturer's instructions. Ultimately, purity of the MACS-isolated CD19^+ B cells, CD19^+CD27^+IgD^− memory B cells and CD19^+CD27^−IgD^+ […] was assessed by flow cytometry; purity was >90% for B cells, >65% for memory B cells, and >85% for naive B cells. All cell cultures were carried out in RPMI 1640 medium (Thermo Fisher Scientific) supplemented with 10% FCS, L-glutamine, and penicillin/streptomycin. Cells were incubated at 37° C. in a 5% CO2 atmosphere.
Cells were resuspended in PBS and labelled with Cell Proliferation Dye eFluor 450 (CPD) (eBioscience) at a final concentration of 10 μM at 37° C. for 10 min, kept on ice for 5 min, and washed twice with 10 mL of ice-cold RPMI 1640 10% FCS medium.
B cells were stimulated to differentiate into plasmablasts using a two-phase cell culture protocol as previously described. Briefly, B cells were seeded at 4×10^5 cells/mL in 24-well plates and activated during 4 days with 50 ng/mL recombinant human soluble CD40L (R&D Systems), 2.5 μg/mL CpG oligodeoxynucleotide (ODN) 2006 (Amidogen or Cayla Invivogen), 2 μg/mL F(ab′)2 fragment goat anti-human IgA+IgG+IgM (H+L) polyclonal Abs (anti-BCR) (Jackson ImmunoResearch Laboratories), and 50 U/mL human IL-2 (SARL Pharmaxie or Novartis). Day 4-activated B cells were washed and cultured at the same concentration for three additional days in a fresh medium containing 50 U/mL human IL-2, 10 ng/mL human IL-4 (R&D Systems), and 10 ng/mL human IL-10 (R&D Systems) to induce B cell differentiation into plasmablasts. […]

[1] = molecular target: T1, POU domain of OCT1 (POU1) (Homo sapiens, UniProt P14859); assay: Kd measurement (fluorescence emission spectra, Hill's coordinates); format: binding; settings: 298.15 K
T1 construct: 6xHis (pET28 N-terminal histidine tag) (N); made in house; host or cells: E. coli BL21
T1 sequence (P14859 280-438): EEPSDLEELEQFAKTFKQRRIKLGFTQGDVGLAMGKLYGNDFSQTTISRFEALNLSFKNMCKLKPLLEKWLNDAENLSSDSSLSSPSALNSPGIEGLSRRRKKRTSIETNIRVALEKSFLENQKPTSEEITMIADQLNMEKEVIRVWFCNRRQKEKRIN

Cc1ccc(NC(=O)C2CN(c3nc(NCCCc4ccc(F)cc4)nc(NCCC(=O)O)n3)c3ccccc3O2)cc1Cl (stereo not shown) [compound 005, 3-((4-(2-((3-chloro-4-methylphenyl)carbamoyl)-2,3-dihydro-4H-benzo[b][1,4]oxazin-4-yl)-6-((3-(4-fluorophenyl)propyl)amino)-1,3,5-triazin-2-yl)amino)propanoic acid]
frequency of CD38+ B cells (memory B cells; 5 μM, day 4, mean±SD): 30.5±25.6% | proliferating (CPD low) B cells (memory B cells; 5 μM, day 4, mean±SD): 66.3±4.8% | frequency of CD38+ B cells (memory B cells; 5 μM, day 7): 68.9±10.2% | relative proportion of CD27+ cells (memory B cells; 5 μM, day 7): 54.3±15.9% | frequency of CD38+ B cells (memory B cells; 10 μM, day 4, mean±SD): 23.9±18.3 | proliferating (CPD low) B cells (memory B cells; 10 μM, day 4, mean±SD): 46.7±18.3% | CD20loCD38hi plasmablasts generation, median percentage decrease (memory B cells; 10 μM, day 7): 30.3% | frequency of CD38+ B cells (memory B cells; 10 μM, day 7): 55.5±16.1 | relative proportion of CD27+ cells (memory B cells; 10 μM, day 7): 53.6±14.2% | expression of CD20 marker (CD20+ B cells) (memory B cells; 10 μM): 81.7±12.4% | frequency of CD27+ cells (memory B cells; 15 μM): 9.5±11.7% | frequency of CD38+ B cells (memory B cells; 15 μM, day 4, mean±SD): 4.3±3.7% | proliferating (CPD low) B cells (memory B cells; 15 μM, day 4, mean±SD): 34.9±19.2% | CD20loCD38hi plasmablasts generation, median percentage decrease (memory B cells; 15 μM, day 7): 70.5% | frequency of CD38+ B cells (memory B cells; 15 μM, day 7): 26.3±13.9% | expression of CD20 marker (CD20+ B cells) (memory B cells; 15 μM): 85.4±11.7% | frequency of CD27+ cells (memory B cells; 20 μM): 6.4±6.4 | frequency of CD38+ B cells (memory B cells; 20 μM, day 4, mean±SD): 2.5±2.2 | proliferating (CPD low) B cells (memory B cells; 20 μM, day 4, mean±SD): 20.4±19.0% | CD20loCD38hi plasmablasts generation, median percentage decrease (memory B cells; 20 μM, day 7): 85.2% | frequency of CD38+ B cells (memory B cells; 20 μM, day 7): 13.0±12.9 | relative proportion of CD27+ cells (memory B cells; 20 μM, day 7): 9.4±8.1% | frequencies of naïve B cells (memory B cells; with the increase in concentration, day 7): significantly increased | Kd ([1]; POU1 3 μM): 1 nM | ΔG (change of Gibb's energy) of binding ([1]; calculated from Kb): negative value
